Measurements: patent publication US9353090B2, “Heterocyclic carboxylic acids as activators of soluble guanylate cyclase” (Boehringer Ingelheim International GmbH, priority 2014, dated 2016)
Values after ≈ are worked out from the molar mass of the structure shown.

What was measured:
[1] = biological target: human soluble guanylate cyclase alpha 1 and beta 1 subunits (sGC) (Homo sapiens (Human), UniProt Q02108+Q02153); test: sGC cellular activator assay (cGMP, HTRF), in the presence and absence of 50% human serum; format: cell-based; settings: CHO cells stably expressing human sGC alpha 1/beta 1, preincubated with 40 microM ODQ; cGMP by HTRF; Table 2 does not state whether with or without 50% human serum
human soluble guanylate cyclase alpha 1 and beta 1 subunits (sGC), sequence (Q02108 whole entry partner): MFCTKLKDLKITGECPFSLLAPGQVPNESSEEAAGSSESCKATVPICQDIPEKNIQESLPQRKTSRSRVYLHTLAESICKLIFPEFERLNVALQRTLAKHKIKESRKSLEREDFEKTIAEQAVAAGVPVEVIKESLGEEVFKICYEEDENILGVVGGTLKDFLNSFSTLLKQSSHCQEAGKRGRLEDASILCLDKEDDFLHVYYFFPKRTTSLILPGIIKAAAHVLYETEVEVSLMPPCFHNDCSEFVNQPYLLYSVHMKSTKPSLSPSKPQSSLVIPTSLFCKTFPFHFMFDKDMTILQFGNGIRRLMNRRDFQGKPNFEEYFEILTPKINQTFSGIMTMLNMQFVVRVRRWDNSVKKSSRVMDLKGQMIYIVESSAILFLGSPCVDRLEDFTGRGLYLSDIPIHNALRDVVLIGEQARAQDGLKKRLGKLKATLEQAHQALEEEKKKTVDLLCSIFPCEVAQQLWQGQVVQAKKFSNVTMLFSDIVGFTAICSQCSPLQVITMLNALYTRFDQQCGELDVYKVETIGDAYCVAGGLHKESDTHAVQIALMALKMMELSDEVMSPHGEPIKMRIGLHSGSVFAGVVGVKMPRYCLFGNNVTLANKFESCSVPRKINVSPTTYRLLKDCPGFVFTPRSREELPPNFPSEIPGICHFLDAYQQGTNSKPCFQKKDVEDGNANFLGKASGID
human soluble guanylate cyclase alpha 1 and beta 1 subunits (sGC), sequence (Q02153 whole entry): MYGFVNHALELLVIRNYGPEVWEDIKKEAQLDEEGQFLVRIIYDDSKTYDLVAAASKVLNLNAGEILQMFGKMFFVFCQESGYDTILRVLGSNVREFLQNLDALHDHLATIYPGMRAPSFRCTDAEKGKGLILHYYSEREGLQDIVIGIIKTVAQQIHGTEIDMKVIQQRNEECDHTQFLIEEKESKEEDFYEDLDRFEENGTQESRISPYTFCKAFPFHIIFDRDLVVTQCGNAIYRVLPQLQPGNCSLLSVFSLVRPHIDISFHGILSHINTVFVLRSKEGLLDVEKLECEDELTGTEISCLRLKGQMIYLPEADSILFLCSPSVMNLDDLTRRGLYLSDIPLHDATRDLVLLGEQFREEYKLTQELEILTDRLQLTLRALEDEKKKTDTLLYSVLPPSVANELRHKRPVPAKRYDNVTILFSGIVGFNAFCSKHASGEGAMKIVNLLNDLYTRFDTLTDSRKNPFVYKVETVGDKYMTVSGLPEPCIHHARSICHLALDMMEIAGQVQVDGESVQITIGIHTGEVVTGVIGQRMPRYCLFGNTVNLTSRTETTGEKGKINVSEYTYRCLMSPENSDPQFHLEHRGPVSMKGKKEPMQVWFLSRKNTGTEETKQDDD
Procedure, shortened: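 First, CHO-sGC (human α1β1) cells get 1 h ODQ at 40 microM with IBMX and 0.1% BSA. Finally, cGMP is quantified by HTRF and EC50 computed.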

[2] = Human liver microsome (HLM) metabolic stability assay; format: in vitro ADME; settings: human liver microsomes
Procedure, shortened: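 Remaining parent measured by LC/MS/MS (ESI, MRM) at 5, 15, 30 and 60 min relative to 0 min. Incubation: 1 uM compound, HLMs, NADPH-started, 37° C., 60 min total, single replicate. Slope of ln(% remaining) gives t1/2 = 0.693/slope, then CLint, CLh and % Qh.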

physchem = settings: kinetic from dmso stock
[3] = pH 2.2, aqueous buffer, Solubility (pH 2.2)
[4] = pH 4.5, aqueous buffer, Solubility (pH 4.5)
[5] = pH 6.8, aqueous buffer, Solubility (pH 6.8)

| Compound | EC50 [1] | Metabolic stability (Qh %), % hepatic blood flow [2] | solubility at 24 h (physchem; [3]) | solubility at 24 h (physchem; [4]) | solubility at 24 h (physchem; [5]) |
| --- | --- | --- | --- | --- | --- |
| CCO[C@H]1CN(c2nc(-c3cccc(Cl)c3OCc3cc4c(c(OC)c3)CN(C3CCOCC3)CC4)cs2)CC[C@H]1C(=O)O [Compound 261] | 3 nM | 29% | 116 µg/mL (≈ 180 µM) | 40.7 µg/mL (≈ 63.4 µM) | 38.9 µg/mL (≈ 60.6 µM) |
| COC[C@H]1N(c2cccc(-c3cccc(C)c3OCc3ccc4c(c3F)CCN(C3CCOCC3)CC4)n2)C[C@@H]2C[C@@]21C(=O)O [Compound 262] | 3 nM | 25% | 133 µg/mL (≈ 215 µM) | 94.9 µg/mL (≈ 154 µM) | 67.4 µg/mL (≈ 109 µM) |
| COC[C@H]1N(c2cccc(-c3cccc(C)c3OCc3ccc4c(c3F)CCN(C3COC3)CC4)n2)C[C@@H]2C[C@@]21C(=O)O [Compound 263] | 7 nM | <24% | 122 µg/mL (≈ 207 µM) | 82.8 µg/mL (≈ 141 µM) | 54.4 µg/mL (≈ 92.6 µM) |
| COc1cc(COc2c(Cl)cccc2-c2csc(N3CC[C@@H](C(=O)O)[C@@H](OC)C3)n2)cc2c1CN(C1CCOCC1)CC2 [Compound 264] | 4 nM | <24% | 135 µg/mL (≈ 215 µM) | 56.6 µg/mL (≈ 90.1 µM) | 51.8 µg/mL (≈ 82.5 µM) |
| COc1cc(COc2c(Cl)cccc2-c2csc(N3CC[C@H](C(=O)O)[C@H](OC)C3)n2)cc2c1CN(C1CCOCC1)CC2 [Compound 265] | 15 nM | <24% | 117 µg/mL (≈ 187 µM) | 53.7 µg/mL (≈ 85.5 µM) | 46.7 µg/mL (≈ 74.3 µM) |
| CO[C@@H]1CN(c2nc(-c3cccc(C)c3OCc3ccc4c(c3F)CCN(C3CCOCC3)CC4)cs2)CC[C@@H]1C(=O)O [Compound 266] | 5 nM | <24% | 109 µg/mL (≈ 179 µM) | 63.1 µg/mL (≈ 103 µM) | 59.4 µg/mL (≈ 97.4 µM) |
| CO[C@@H]1CN(c2nc(-c3cccc(C)c3OCc3ccc4c(c3F)CCN(C3COC3)CC4)cs2)CC[C@@H]1C(=O)O [Compound 267] | 7 nM | <24% | 116 µg/mL (≈ 199 µM) | 60.3 µg/mL (≈ 104 µM) | 59.6 µg/mL (≈ 102 µM) |
| COC[C@H]1N(c2cccc(-c3cccc(C)c3OCc3ccc4c(c3F)CCN(C3CCOC3)CC4)n2)C[C@@H]2C[C@@]21C(=O)O (some centres unmarked) [Compound 268] | 4 nM | 40% | 119 µg/mL (≈ 198 µM) | 88.6 µg/mL (≈ 147 µM) | 57.8 µg/mL (≈ 96.1 µM) |
| CCO[C@@H]1CN(c2nc(-c3cc(C)ccc3OCc3cc(C)c4c(c3F)CCN(C3CCOCC3)C4)cs2)CC[C@@H]1C(=O)O [Compound 269] | 6 nM | <24% | 115 µg/mL (≈ 184 µM) | 35.1 µg/mL (≈ 56.3 µM) | 3 µg/mL (≈ 4.81 µM) |
| CCO[C@@H]1CN(c2nc(-c3cccc(C)c3OCc3cc(OC)c4c(c3F)CCN(C3CCOCC3)C4)cs2)CC[C@@H]1C(=O)O [Compound 270] | 2 nM | 38% | 114 µg/mL (≈ 179 µM) | 73.4 µg/mL (≈ 115 µM) | 64 µg/mL (≈ 100 µM) |
| COc1cc(COc2ccc(C)cc2-c2csc(N3CC[C@@H](C(=O)O)[C@@H](OC)C3)n2)c(F)c2c1CN(C1CCOCC1)CC2 [Compound 271] | 5 nM | <24% | 134 µg/mL (≈ 214 µM) | 66.6 µg/mL (≈ 106 µM) | 32.8 µg/mL (≈ 52.4 µM) |
| CCO[C@@H]1CN(c2nc(-c3cc(C)ccc3OCc3cc(OC)c4c(c3F)CCN(C3CCOCC3)C4)cs2)CC[C@@H]1C(=O)O [Compound 272] | 2 nM | <24% | 128 µg/mL (≈ 201 µM) | 54.1 µg/mL (≈ 84.6 µM) | 18.5 µg/mL (≈ 28.9 µM) |
| CO[C@H]1CN(c2cccc(-c3cccc(C)c3OCc3cc(F)c4c(c3)CCN(C3CCOCC3)CC4)n2)CC[C@H]1C(=O)O [Compound 273] | 5 nM | <24% | 120 µg/mL (≈ 198 µM) | 80.7 µg/mL (≈ 134 µM) | 64.3 µg/mL (≈ 107 µM) |
| CO[C@H]1CN(c2cccc(-c3cccc(C)c3OCc3cc(F)c4c(c3)CCN(C3COC3)CC4)n2)CC[C@H]1C(=O)O [Compound 274] | 4 nM | <24% | 114 µg/mL (≈ 198 µM) | 72 µg/mL (≈ 125 µM) | 65.5 µg/mL (≈ 114 µM) |
| CCO[C@H]1CN(c2nccc(-c3cccc(C)c3OCc3ccc4c(c3C)CCN(C3CCOCC3)CC4)n2)CC[C@H]1C(=O)O [Compound 275] | 32 nM | 28% | 117 µg/mL (≈ 190 µM) | 81.3 µg/mL (≈ 132 µM) | 84.5 µg/mL (≈ 137 µM) |
| CCO[C@@H]1CN(c2nccc(-c3cccc(C)c3OCc3ccc4c(c3C)CCN(C3CCOCC3)CC4)n2)CC[C@@H]1C(=O)O [Compound 276] | 150 nM | <24% | 126 µg/mL (≈ 206 µM) | 84.8 µg/mL (≈ 138 µM) | 90.6 µg/mL (≈ 147 µM) |

| Compound | EC50 [1] | Metabolic stability (Qh %), % hepatic blood flow [2] | solubility at 24 h (physchem; [3]) | solubility at 24 h (physchem; [4]) | solubility at 24 h (physchem; [5]) |
| --- | --- | --- | --- | --- | --- |
| CO[C@H]1CN(c2cccc(-c3cccc(C)c3OCc3ccc4c(c3F)CCN(C3CCOCC3)CC4)n2)CC[C@H]1C(=O)O [Compound 277] | 4 nM | <24% | 133 µg/mL (≈ 220 µM) | 97.1 µg/mL (≈ 161 µM) | 74.4 µg/mL (≈ 123 µM) |
| CO[C@H]1CN(c2cccc(-c3cccc(C)c3OCc3ccc4c(c3F)CCN(C3COC3)CC4)n2)CC[C@H]1C(=O)O [Compound 278] | 6 nM | <24% | 122 µg/mL (≈ 212 µM) | 85.1 µg/mL (≈ 148 µM) | 68 µg/mL (≈ 118 µM) |
| COCc1cc(COc2c(C)cccc2-c2cccc(N3C[C@@H]4C[C@]4(C(=O)O)[C@H]3COC)n2)cc2c1CN(C1CCOCC1)CC2 [Compound 279] | 65 nM | <24% | 128 µg/mL (≈ 203 µM) | 100 µg/mL (≈ 160 µM) | 82.8 µg/mL (≈ 132 µM) |
| COCc1cc(COc2c(C)cccc2-c2cccc(N3C[C@@H]4C[C@]4(C(=O)O)[C@H]3COC)n2)cc2c1CN(C1CCOC1)CC2 (some centres unmarked) [Compound 280] | 140 nM | 30% | 120 µg/mL (≈ 196 µM) | 91 µg/mL (≈ 148 µM) | 79.3 µg/mL (≈ 129 µM) |
| COCc1cc(COc2c(C)cccc2-c2cccc(N3C[C@@H]4C[C@]4(C(=O)O)[C@H]3COC)n2)cc2c1CN(C1COC1)CC2 [Compound 281] | 267 nM | 25% | 120 µg/mL (≈ 200 µM) | 87.4 µg/mL (≈ 146 µM) | 83.1 µg/mL (≈ 139 µM) |
| CO[C@H]1CN(c2cccc(-c3cccc(C)c3OCc3ccc4c(c3C)CCN(C3COC3)CC4)n2)CC[C@H]1C(=O)O [Compound 282] | 14 nM | 58% | 137 µg/mL (≈ 240 µM) | 99.6 µg/mL (≈ 174 µM) | 80.5 µg/mL (≈ 141 µM) |
| CO[C@@H]1CN(c2cccc(-c3cccc(C)c3OCc3ccc4c(c3C)CCN(C3CCOC3)CC4)n2)CC[C@@H]1C(=O)O (some centres unmarked) [Compound 283] | 4 nM | <24% | 124 µg/mL (≈ 212 µM) | 89.4 µg/mL (≈ 153 µM) | 68.4 µg/mL (≈ 117 µM) |
| COCc1cc(COc2c(C)cccc2-c2cccc(N3CC[C@H](C(=O)O)[C@H](OC)C3)n2)cc2c1CN(C1CCOC1)CC2 (some centres unmarked) [Compound 284] | 231 nM | <24% | 129 µg/mL (≈ 215 µM) | 103 µg/mL (≈ 171 µM) | 83.5 µg/mL (≈ 139 µM) |
| COCc1cc(COc2c(C)cccc2-c2cccc(N3CC[C@H](C(=O)O)[C@H](OC)C3)n2)cc2c1CN(C1COC1)CC2 [Compound 285] | 359 nM | <24% | 146 µg/mL (≈ 248 µM) | 111 µg/mL (≈ 188 µM) | 97.6 µg/mL (≈ 166 µM) |
| COCc1cc(COc2c(C)cccc2-c2cccc(N3CC[C@H](C(=O)O)[C@H](OC)C3)n2)cc2c1CN(C1CCOCC1)CC2 [Compound 286] | 160 nM | <24% | 149 µg/mL (≈ 242 µM) | 119 µg/mL (≈ 193 µM) | 88.5 µg/mL (≈ 144 µM) |
| CO[C@H]1CN(c2nc(-c3cccc(C)c3OCc3ccc4c(c3C)CCN(C3COC3)CC4)cs2)CC[C@H]1C(=O)O [Compound 287] | 13 nM | <24% | 120 µg/mL (≈ 207 µM) | 72.7 µg/mL (≈ 126 µM) | 71.7 µg/mL (≈ 124 µM) |
| CO[C@H]1CN(c2nc(-c3cccc(C)c3OCc3ccc4c(c3C)CCN(C3CCOCC3)CC4)cs2)CC[C@H]1C(=O)O [Compound 288] | 18 nM | <24% | 117 µg/mL (≈ 193 µM) | 75.5 µg/mL (≈ 125 µM) | 71.8 µg/mL (≈ 119 µM) |
| CO[C@H]1CN(c2cccc(-c3cccc(C)c3OCc3ccc4c(c3C)CCN(C3COC3)CC4)n2)CC[C@@H]1C(=O)O [Compound 289] | 235 nM | <24% | 123 µg/mL (≈ 215 µM) | 82.4 µg/mL (≈ 144 µM) | 69.9 µg/mL (≈ 122 µM) |
| CO[C@@H]1CN(c2cccc(-c3cccc(C)c3OCc3ccc4c(c3C)CCN(C3COC3)CC4)n2)CC[C@H]1C(=O)O [Compound 290] | 228 nM | <24% | 119 µg/mL (≈ 208 µM) | 80 µg/mL (≈ 140 µM) | 66.5 µg/mL (≈ 116 µM) |
| CO[C@@H]1CN(c2cccc(-c3cccc(C)c3OCc3cc(C)c4c(c3)CCN(C3COC3)CC4)n2)CC[C@@H]1C(=O)O [Compound 291] | 2 nM | <24% | 128 µg/mL (≈ 224 µM) | 84.7 µg/mL (≈ 148 µM) | 62.3 µg/mL (≈ 109 µM) |
